From patent US10548899B2, “Quinazolinone and benzotriazinone compounds with cholinergic muscarinin M1 receptor positive allosteric modulator activity” (TAKEDA PHARMACEUTICAL COMPANY LIMITED, priority 2015, dated 2020)

Target: T1, human M1 receptor (hCHRM1) (Homo sapiens, UniProt P11229)
T1 construct: expressed in transfected cells; host or cells: CHO-K1
T1 sequence (P11229 1-460): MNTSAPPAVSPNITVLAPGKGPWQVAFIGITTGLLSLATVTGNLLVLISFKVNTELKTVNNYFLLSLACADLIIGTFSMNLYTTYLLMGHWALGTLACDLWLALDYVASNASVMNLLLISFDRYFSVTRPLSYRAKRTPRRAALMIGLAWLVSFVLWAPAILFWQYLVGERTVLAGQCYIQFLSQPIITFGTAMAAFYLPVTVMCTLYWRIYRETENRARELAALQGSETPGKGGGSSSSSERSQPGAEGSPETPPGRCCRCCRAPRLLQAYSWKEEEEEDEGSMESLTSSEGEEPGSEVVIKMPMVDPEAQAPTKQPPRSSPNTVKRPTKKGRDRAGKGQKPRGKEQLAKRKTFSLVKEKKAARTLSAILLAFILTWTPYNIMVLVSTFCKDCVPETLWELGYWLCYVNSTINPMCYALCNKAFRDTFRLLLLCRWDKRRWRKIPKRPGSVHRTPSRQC
Test: Measurement of M1 receptor positive allosteric modulator (M1PAM) activity (calcium fluorescence, Fluo-4, FDSS)
Assay type: cell-based
Details: for activity (%) at 10 μM: 10 μM test compound, acetylcholine EC20 (final 0.8 nM) present, 100% = acetylcholine 1 μM, 0% = DMSO, CHO-K1 hCHRM1 cells; for EC50: inflection point of concentration-dependent curve, CHO-K1 cells stably expressing hCHRM1, in presence of acetylcholine at EC20 concentration (final 0.8 nM), read-out: IP value
Experimental: Measurement of M1 receptor positive allosteric modulator (M1PAM) activity
The activity of a test compound in the presence of acetylcholine at EC20 concentration (final concentration 0.8 nM), which affords an action corresponding to about 20% of the maximum activity, was measured as PAM activity. The method is as follows. CHO-K1 cells stably expressing a human M1 receptor (hCHRM1) were plated on a 384-well black clear bottom plate (BD Falcon) at 5,000 cells/well, and cultured in an incubator at 37° C., 5% CO2 for 1 day. The medium in the cell plate was removed, and assay buffer A containing a calcium indicator (Recording medium (DOJINDO LABORATORIES), 0.1% BSA (Wako Pure Chemical Industries, Ltd.), 2.5 μg/mL Fluo-4 AM (DOJINDO LABORATORIES), 0.08% Pluronic F127 (DOJINDO LABORATORIES) and 1.25 mM probenecid (DOJINDO LABORATORIES) were added at 30 μL/well. The cells were left standing in the incubator at 37° C., 5% CO2 for 30 min, and further left standing at room temperature for 30 min. A test compound prepared by diluting with assay buffer B (HESS (Invitrogen), 20 mM HEPES (Invitrogen), 0.1% BSA) containing 3.2 nM acetylcholine was added at 10 μL/well, and the fluorescence was measured by FDSS/μcell (Hamamatsu Photonics K.K.) for 1 min every for 1 second. With the definition that the amount of change in the fluorescence on addition of acetylcholine (final concentration 1 μM) is 100% and that on addition of DMSO instead of a test compound is 0%, the activity (%) of the test compound was calculated, and the inflection point in the concentration-dependent curve of the test compound was calculated as IP values.

Question: For `Cc1c(Cc2ccc(-c3cnn(C)c3)nc2)cc2c(=O)n(CC3CCCO3)nnc2c1C` (stereo not shown) [Example 39, 7,8-dimethyl-6-((6-(1-methyl-1H-pyrazol-4-yl)pyridin-3-yl)methyl)-3-(tetrahydrofuran-2-ylmethyl)-1,2,3-benzotriazin-4(3H)-one], which “activity (%) at 10 μM” value is on record?
Answer: The value was 97%.

Question: And the EC50?
Answer: The EC50 was 85 nM.

Question: `Cc1c(Cc2ccc(-n3cccn3)cc2)cc2c(=O)n([C@H]3COCC[C@@H]3O)nnc2c1C` [Example 41, 3-((3S,4S)-4-hydroxytetrahydro-2H-pyran-3-yl)-7,8-dimethyl-6-(4-(1H-pyrazol-1-yl)benzyl)-1,2,3-benzotriazin-4(3H)-one] was tested. Which “activity (%) at 10 μM” value did it give?
Answer: The value was 101%.

Question: And the EC50?
Answer: Its EC50 is 29 nM.

Question: What does the source list for `Cc1c(Cc2ccc(-n3cccn3)cc2)cc2c(=O)n([C@H]3COCC[C@@H]3O)nnc2c1C` [Example 43, 3-((3S,4S)-4-hydroxytetrahydro-2H-pyran-3-yl)-7,8-dimethyl-6-(4-(1H-pyrazol-1-yl)benzyl)-1,2,3-benzotriazin-4(3H)-one]?
Answer: activity (%) at 10 μM: 100%; EC50: 14 nM

Question: How did the “activity (%) at 10 μM” value turn out when `Cc1c(Cc2ccc(-n3cccn3)nc2)cc2c(=O)n([C@H]3COCC[C@@H]3O)nnc2c1C` [Example 44, 3-[(3S,4S)-4-hydroxytetrahydro-2H-pyran-3-yl]-7,8-dimethyl-6-{[6-(1H-pyrazol-1-yl)pyridin-3-yl]methyl}-1,2,3-benzotriazin-4(3H)-one] was run?
Answer: Its value is 100%.

Question: And the EC50?
Answer: The EC50 was 32 nM.

Question: What does the source list for `Cc1c(Cc2ccc(-c3ccn(C)n3)nc2)cc2c(=O)n(CC3CCCO3)nnc2c1Cl` (stereo not shown) [Example 45, 8-chloro-7-methyl-6-((6-(1-methyl-1H-pyrazol-3-yl)pyridin-3-yl)methyl)-3-(tetrahydrofuran-2-ylmethyl)1,2,3-benzotriazin-4(3H)-one]?
Answer: activity (%) at 10 μM: 95%; EC50: 25 nM

Question: What does the source list for `Cc1c(Cc2ccc(-c3ccn(C)n3)cc2)cc2c(=O)n([C@H]3COCC[C@@H]3O)nnc2c1C` [Example 47, 3-((3S,4S)-4-hydroxytetrahydro-2H-pyran-3-yl)-7,8-dimethyl-6-(4-(1-methyl-1H-pyrazol-3-yl)benzyl)-1,2,3-benzotriazin-4(3H)-one]?
Answer: activity (%) at 10 μM: 95%; EC50: 38 nM

Question: `Cc1cc2nnn([C@H]3COCC[C@@H]3O)c(=O)c2cc1Cc1ccc(-c2ccn(C)n2)cc1` [Example 48, 3-((3S,4S)-4-hydroxytetrahydro-2H-pyran-3-yl)-7-methyl-6-(4-(1-methyl-1H-pyrazol-3-yl)benzyl)-1,2,3-benzotriazin-4(3H)-one] was tested. Which “activity (%) at 10 μM” value did it give?
Answer: Its value is 98%.

Question: And the EC50?
Answer: Its EC50 is 59 nM.

Question: How did the “activity (%) at 10 μM” value turn out when `Cc1c(Cc2ccc(-n3cccn3)cc2)cc2c(=O)n([C@H]3COCC[C@@H]3O)nnc2c1F` [Example 49, 8-fluoro-3-((3S,4S)-4-hydroxytetrahydro-2H-pyran-3-yl)-7-methyl-6-(4-(1H-pyrazol-1-yl)benzyl)-1,2,3-benzotriazin-4(3H)-one] was run?
Answer: Its value is 97%.

Question: And the EC50?
Answer: The EC50 was 18 nM.

Question: `Cc1c(Cc2ccc(Cl)nc2)cc2c(=O)n([C@H]3CCCC[C@@H]3O)cnc2c1C` [Example 54, 6-((6-chloropyridin-3-yl)methyl)-3-((1S,2S)-2-hydroxycyclohexyl)-7,8-dimethylquinazolin-4(3H)-one] was tested. Which “activity (%) at 10 μM” value did it give?
Answer: Its value is 96%.

Question: What about the EC50 of the same compound?
Answer: The EC50 was 23 nM.

Question: For `Cc1c(Cc2ccc(-n3cccn3)cc2)cc2c(=O)n([C@H]3CCOC[C@@H]3O)cnc2c1C` [Example 55, 3-((3R,4S)-3-hydroxytetrahydro-2H-pyran-4-yl)-7,8-dimethyl-6-(4-(1H-pyrazol-1-yl)benzyl)quinazolin-4(3H)-one], which “activity (%) at 10 μM” value is on record?
Answer: Its value is 99%.

Question: And the EC50?
Answer: The EC50 was 7.4 nM.

Question: How did the “activity (%) at 10 μM” value turn out when `Cc1c(Cc2ccc(-n3cccn3)cc2)cc2c(=O)n([C@H]3CCOC[C@@H]3O)nnc2c1C` [Example 56, 3-((3R,4S)-3-hydroxytetrahydro-2H-pyran-4-yl)-7,8-dimethyl-6-(4-(1H-pyrazol-1-yl)benzyl)-1,2,3-benzotriazin-4(3H)-one] was run?
Answer: Its value is 98%.

Question: And the EC50?
Answer: The EC50 was 15 nM.

Question: For `Cc1c(Cc2ccc(-c3ccn(C)n3)nc2)cc2c(=O)n([C@H]3CCCC[C@@H]3O)cnc2c1C` [Example 57, 3-((1S,2S)-2-hydroxycyclohexyl)-7,8-dimethyl-6-((6-(1-methyl-1H-pyrazol-3-yl)pyridin-3-yl)methyl)quinazolin-4(3H)-one], which “activity (%) at 10 μM” value is on record?
Answer: The value was 98%.

Question: What about the EC50 of the same compound?
Answer: The EC50 was 7.3 nM.

Question: For `Cc1c(Cc2ccc(-c3ccn(C)n3)nc2)cc2c(=O)n([C@H]3COCC[C@@H]3O)nnc2c1C` [Example 58, 3-((3S,4S)-4-hydroxytetrahydro-2H-pyran-3-yl)-7,8-dimethyl-6-((6-(1-methyl-1H-pyrazol-3-yl)pyridin-3-yl)methyl)-1,2,3-benzotriazin-4(3H)-one], which “activity (%) at 10 μM” value is on record?
Answer: The value was 95%.

Question: What about the EC50 of the same compound?
Answer: The EC50 was 14 nM.

Question: How did the “activity (%) at 10 μM” value turn out when `Cc1c(Cc2ccc(-c3cnn(C)c3)nc2)cc2c(=O)n([C@H]3CCCC[C@@H]3O)cnc2c1C` [Example 59, 3-((1S,2S)-2-hydroxycyclohexyl)-7,8-dimethyl-6-((6-(1-methyl-1H-pyrazol-4-yl)pyridin-3-yl)methyl)quinazolin-4(3H)-one] was run?
Answer: The value was 94%.

Question: And the EC50?
Answer: The EC50 was 4.8 nM.
